Source: patent publication US20220227859A1, “METHOD TO TREAT TYPE 2 INFLAMMATION OR MAST-CELL DEPENDENT DISEASE” (INSERM (INSTITUT NATIONAL DE LA SANTÉ ET DE LA RECHERCHE …, priority 2019, published 2022)

Columns and labels:
[1] = test system: TRPV1+ nociceptors; settings: mouse, in vivo
[2] = test system: TRPV1+ nociceptors; settings: mouse, in vivo; remark: listed apart in the source
[3] = test system: skin MCs; assay: In vivo two-photon microscopy of Pirt-GCaMP3 mice: degranulation of Av.SRho+ MCs; parameters: species or system mouse; settings: for degranulation of Av.SRho+ MCs: mouse, in vivo
[4] = test system: DRG neurons; type: cell-based, mouse

Row | Compound | expression of the stress marker K-6 [1] | filaggrin organization [1] | skin lesions development and tested pathological features [1] | GCaMP3 fluorescence levels in skin neurons [2] | time by which increase in GCaMP3 fluorescence preceded degranulation of cognate Av.SRho+ MCs ([3]; i.d. 1 μM, video recorded for 60 minutes) [min] | degranulation of Av.SRho+ MCs [3] | intracellular calcium levels in DRG neurons [4]
1 | C=C(C)[C@]12C[C@@H](C)[C@@]34O[C@](Cc5ccccc5)(O[C@@H]1[C@@H]3C=C(COC(=O)Cc1ccc(O)c(OC)c1)C[C@]1(O)C(=O)C(C)=C[C@@H]41)O2 [RTX, resiniferatoxin] | decreased | restored | strong reduction | – | – | – | –
2 | COc1cc(CNC(=O)CCCC/C=C/C(C)C)ccc1O [capsaicin] | – | – | – | strong increase | 10 to 15 | most of Av.SRho^+ MCs exhibited a degranulated phenotype | –
3 | Staphylococcal enterotoxin B [SEB] | – | – | – | significant increase | – | presence of adjacent degranulated Av.SRho^+ MCs | weak
